Reference: publication PMC10300102, “In vivo inhibition of nuclear ACE2 translocation protects against SARS-CoV-2 replication and lung damage through epigenetic imprinting” (Nature Communications, 2023)
Where a SMILES comes first, the peptide text is derived from it. The star is where a group is joined. Myristoyl = CCCCCCCCCCCCCC(=O)*

Tested on: SARS-CoV-2 ORF1ab and host gene expression
Settings: hamster, in vivo

CCCCCCCCCCCCCC(=O)N[C@H](C(=O)NCC(=O)N[C@H](C(=O)N[C@@H](CCCNC(=N)N)C(=O)N[C@@H](CC(=O)O)C(=O)N[C@@H](CCCNC(=N)N)C(=O)N[C@@H](CCCCN)C(=O)N[C@@H](CCCCN)C(=O)N[C@@H](CCCCN)C(=O)N[C@@H](CC(N)=O)C(=O)N[C@@H](CCCCN)C(=O)N[C@@H](C)C(=O)N[C@@H](CCCNC(=N)N)C(=O)N[C@@H](CO)C(=O)O)[C@@H](C)CC)[C@@H](C)O [NACE2i] (Myristoyl-TGIRDRKKKNKARS-OH)
FC gene Cyp4v3: 0.2095 | FC gene ORF1ab: -2.2037 | FC gene S: -2.258 | FC, gene 2410004B18Rik: 0.5678 | FC, gene 4932438A13Rik: 0.5459 | FC, gene Acat3: -0.674 | FC, gene Acly: -0.5062 | FC, gene Adnp2: 0.5468 | FC, gene Aen: 0.6316 | FC, gene Aff4: 0.6064 | FC, gene Ahcy: -0.9648 | FC, gene Akap13: 0.5493 | FC, gene Ankrd17: 0.6698 | FC, gene Ap1s1: -0.5707 | FC, gene Ap3d1: 0.5083 | FC, gene Aplnr: 0.5871 | FC, gene Arhgap23: 0.8043 | FC, gene Asph: -0.5094 | FC, gene Atf1: 0.5582 | FC, gene Bbs4: 0.6922 | FC, gene Bnip1: 0.513 | FC, gene Btn1a1: 0.5761 | FC, gene C2: 2.567 | FC, gene Ccdc115: -0.5047 | FC, gene Ccr7: 0.5204 | FC, gene Cdk4: -0.5201 | FC, gene Chd8: 1.187 | FC, gene Chpt1: -0.6745 | FC, gene Ciao2a: -0.5045 | FC, gene Clcn7: 0.7305 | FC, gene Cldn10: -0.6712 | FC, gene Clec2j: -0.5841 | FC, gene Cuedc1: -0.5402 | FC, gene Cyp4a32: 0.9236 | FC, gene Cyth4: 0.5449 | FC, gene D8Ertd738e: -0.5566 | FC, gene Dcps: 0.5089 | FC, gene Ddx3x: 0.6643 | FC, gene Ddx17: -0.6263 | FC, gene Ddx50: 0.5809 | FC, gene Dnajb1: 1.307 | FC, gene Dnajb4: 0.8217 | FC, gene Dusp6: 0.7087 | FC, gene Dusp8: 0.9914 | FC, gene Edem2: -0.5407 | FC, gene Efcab6: -0.6582 | FC, gene Efhc2: 0.6406 | FC, gene Efl1: 0.5009 | FC, gene Egr2: 1.468 | FC, gene Epb41l2: 0.503 | FC, gene Epb41l4b: -0.6555 | FC, gene Epc1: 0.5651 | FC, gene Erfl: 0.7342 | FC, gene Fam210b: -0.5004 | FC, gene Fbxo34: 0.5562 | FC, gene Fer1l4: 0.5763 | FC, gene Fgfr2: -0.6329 | FC, gene Fnip1: 1.067 | FC, gene Foxa1: -0.5875 | FC, gene Foxo4: -0.5985 | FC, gene Foxp1: 0.7638 | FC, gene Frk: -0.5985 | FC, gene Fscn1: 0.6051 | FC, gene Gadd45gip1: -0.6021 | FC, gene Galnt16: 0.5879 | FC, gene Gcdh: -0.6082 | FC, gene Get3: -0.5368 | FC, gene Gm6760: -0.5229 | FC, gene Gm19935: 0.6161 | FC, gene Gm36327: 0.5888 | FC, gene Gpr108: -0.6108 | FC, gene Grcc10: -0.632 | FC, gene Gstm5: -0.5595 | FC, gene Hbs1l: 0.5826 | FC, gene Hcfc2: 0.539 | FC, gene Hddc3: -0.6233 | FC, gene Hes1: 0.7365 | FC, gene Hes7: 0.6772 | FC, gene Hnrnph3: 0.5781 | FC, gene Hspa1a: 3.192 | FC, gene Hspb8: 0.5876 | FC, gene Ints1: -0.5112 | FC, gene Ints6: 0.5796 | FC, gene Irgm2: 0.8053 | FC, gene Itm2c: -0.5859 | FC, gene Josd2: -0.5145 | FC, gene Kcnb2: 0.5599 | FC, gene Kdm2b: 0.8792 | FC, gene Klf2: 0.591 | FC, gene Klf6: 1.611 | FC, gene Krcc1: -0.5435 | FC, gene Ldhb: 0.9545 | FC, gene Lrch4: 0.6982 | FC, gene Mat2b: -0.5576 | FC, gene Mcl1: 0.7457 | FC, gene Mff: -0.5195 | FC, gene Mpnd: -0.5935 | FC, gene Mrgprb13: 0.5244 | FC, gene Mrpl18: -0.5015 | FC, gene Msantd1: 0.7207 | FC, gene Myo6: -0.795 | FC, gene Myoz2: -0.6449 | FC, gene Ndufc2: -0.5355 | FC, gene Nfat5: 0.6106 | FC, gene Nfyc: 0.5405 | FC, gene Nlrp9c: 0.6509 | FC, gene Nr1d1: 0.7307 | FC, gene Nr6a1: 0.5193 | FC, gene Nrg1: 1.2298 | FC, gene ORF1ab_REV: 1.502 | FC, gene Olfr229: 0.6277 | FC, gene Olfr648: 0.5798 | FC, gene Olfr992: 0.5742 | FC, gene Olfr1246: 0.5289 | FC, gene Oser1: 0.5067 | FC, gene Papss2: 0.7496 | FC, gene Parp4: 0.5117 | FC, gene Paxx: 0.5674 | FC, gene Pcdh10: 0.5344 | FC, gene Pcf11: 0.7986 | FC, gene Pga5: 0.5011 | FC, gene Pias3: -0.5192 | FC, gene Pigb: 0.6695 | FC, gene Pllp: -0.5323 | FC, gene Ppargc1a: 2.4524 | FC, gene Ppil3: 0.791 | FC, gene Ppp1r10: 1.995 | FC, gene Ppp2r1a: -0.5051 | FC, gene Prpsap1: -0.5066 | FC, gene Ptprf: -0.5908 | FC, gene Pum1: 0.5225 | FC, gene Rac3: -0.6773 | FC, gene Ranbp3: 0.6534 | FC, gene Rapgef6: 0.5765 | FC, gene Rasgrp2: 0.6502 | FC, gene Rbm39: 0.6181 | FC, gene Rel: 0.5472 | FC, gene Rnd1: 2.009 | FC, gene Rora: 0.5709 | FC, gene Rps6ka4: -0.6146 | FC, gene Rsad1: 0.5304 | FC, gene Rtf2: 0.5373 | FC, gene Rusf1: -0.6909 | FC, gene S: 7.077 | FC, gene Samd11: 0.6285 | FC, gene Sdf4: 0.5035 | FC, gene Sema4f: 1.3449 | FC, gene Serhl: 1.282 | FC, gene Serpinb9f: 0.5421 | FC, gene Serpinf1: 0.5919 | FC, gene Sfpq: 0.8832 | FC, gene Sftpd: -0.8403 | FC, gene Skil: 0.9649 | FC, gene Slc8a2: 0.6877 | FC, gene Slc25a1: -0.8686 | FC, gene Slc25a45: 1.7301 | FC, gene Snrnp70: -0.5232 | FC, gene Socs2: 1.6268 | FC, gene Sqle: -0.5283 | FC, gene St7: 0.6724 | FC, gene Stc1: -0.7739 | FC, gene Sult1a1: -0.5479 | FC, gene Tcp11l2: -0.5998 | FC, gene Tecr: -0.5713 | FC, gene Tmbim6: -0.5766 | FC, gene Tmem35b: 1.27 | FC, gene Tnfrsf12a: 0.714 | FC, gene Tpgs1: -0.5572 | FC, gene Tra2b: 1.01 | FC, gene Tspan12: -0.8782 | FC, gene Ttll8: -0.5897 | FC, gene Twist1: 0.5929 | FC, gene Urah: -0.7905 | FC, gene Vpreb1: 0.5028 | FC, gene Vtcn1: -0.6235 | FC, gene Xpo4: 0.7242 | FC, gene Ybey: 0.5779 | FC, gene Ypel3: -0.854 | FC, gene Zbtb10: 0.9542 | FC, gene Zdhhc18: 0.5354 | FC, gene Zfp68: 0.8041 | NEC, Autophagy: -1.884 | NEC, Biological oxidations: -2.307 | NEC, COPI-mediated anterograde transport: -2.085 | NEC, Cilium Assembly: -1.905 | NEC, ER to Golgi Anterograde Transport: -1.892 | NEC, Macroautophagy: -1.884 | NEC, Organelle biogenesis and maintenance: -2.083 | NEC, The citric acid (TCA) cycle and respiratory electron transport: -2.083 | expression of SARS-CoV-2 ORF1ab: significantly reduced | top 20 genes in the TLR4 pathway: downregulated | viral ORF1ab and S genes in alveoli: significantly downregulated
